Values after ≈ are worked out from the molar mass of the structure shown.
Tests used:
[1] = system: P-388 leukemia cells; assay: MTT assay in P-388 leukemia cells; format: cell-based; conditions: for IC50: Mus musculus, P388, P-388 cells; for concentrations that inhibited cell proliferation in P-388 cells: Table 9
Method: HT cells were treated with the diluted cucrubitacin E and I (100-1.56 μg/ml). After the cells were treated for 24 hours, cell viability was determined by MTT assay, which quantitatively measures the metabolic activity of living cells. […] Please see Table 9.
In addition to HT29 cells, P-388 leukemia cells were also determined by MTT assay. […] Please see Table 9.

[2] = system: HT29 cells; assay: Cell morphology of HT29 cells, Giemsa staining, optical microscope; format: cell-based, human; conditions: different concentrations, 24 hours, 10% Giemsa, FIG. 4
[3] = system: HT29 cells; assay: Cell cycle distribution of HT29 cells by flow cytometry; format: cell-based, human; conditions: increasing concentrations, FIG. 5
From the text: The cell cycle of treated cells was examined by flow cytometry.

[4] = Partition coefficient between layers of a two-phase solvent system (HPLC peak area); format: physicochemical; conditions: Hexane-EtOAc—MeOH—H2O 12.24.16.9, from peak areas of lower and upper layer
[5] = system: HT29 cells; assay: MTT cell viability assay in HT29 cells; format: cell-based, human; conditions: for concentrations that greatly reduced cell viability in HT29 cells: 24 hours, MTT, Table 9; for IC50: Homo sapiens, HT-29, 24 h, read-out: IC50 on HT29 cells
Method: HT cells were treated with the diluted cucrubitacin E and I (100-1.56 μg/ml). After the cells were treated for 24 hours, cell viability was determined by MTT assay, which quantitatively measures the metabolic activity of living cells.
The effects of the extract of Aquilaria agallocha Roxb. hulls on cell toxicity in T24 cells (human bladder carcinoma cells), HT29 cells (human colon adenocarcinoma cells), HeLa cells (cervical carcinoma cells), AGS cells (gastric epithelial cancer cells) and Hep G2 lo cells (human hepatocellular liver carcinoma cells) were tested. The above-mentioned cells were treated with the extract of Aquilaria agallocha Roxb. hulls. The procedures of the cell toxicity test were the same as those mentioned in Example 5.

[6] = From the text: Sephadex LH-20 gel (1.5 cm i.d.×36 cm) was used in the molecular sieve chromatography and methanol was used as the mobile phase.

SMILES	IC50 [1] [µg/mL]	concentrations that inhibited cell proliferation in P-388 cells [1]	cell morphology of HT29 cells [2]	cell cycle distribution, sub-G1 population [3]	partition coefficient [4]	concentrations that greatly reduced cell viability in HT29 cells [5]	IC50 [5] [µg/mL]	solubility, in words [6]
CC(=O)OC(C)(C)/C=C/C(=O)[C@](C)(O)C1[C@H](O)C[C@@]2(C)C3CC=C4C(C=C(O)C(=O)C4(C)C)[C@]3(C)C(=O)C[C@]12C (some centres unmarked) [Cucurbitacin E, cucurbitacin E]	6.5 (≈ 11.7 µM)	above 6.5 μM	the nucleus were squeezed and the chromatin was condensed	sub-G1 populations increased	0.90	above 14.1 μM	14.1 (≈ 25.3 µM)	
CC(C)(O)/C=C/C(=O)[C@](C)(O)C1[C@H](O)C[C@@]2(C)C3CC=C4C(C=C(O)C(=O)C4(C)C)[C@]3(C)C(=O)C[C@]12C (some centres unmarked) [Cucurbitacin I, cucurbitacin I]	7.4 (≈ 14.4 µM)	> 7.4 µM	the nucleus were squeezed and the chromatin was condensed	sub-G1 populations increased	0.42	> 15.8 µM	15.8 (≈ 30.7 µM)	
CC(=O)OC(C)(C)/C=C/C(=O)[C@](C)(O)C1[C@H](O)C[C@@]2(C)C3CC=C4C(C=C(O[C@@H]5OC(CO)[C@@H](O)C(O)C5O)C(=O)C4(C)C)[C@]3(C)C(=O)C[C@]12C (some centres unmarked) [cucurbitacin E glucoside]					0.05			
CC(C)(O)/C=C/C(=O)[C@](C)(O)C1[C@H](O)C[C@@]2(C)C3CC=C4C(C=C(O[C@@H]5OC(CO)[C@@H](O)C(O)C5O)C(=O)C4(C)C)[C@]3(C)C(=O)C[C@]12C (some centres unmarked) [cucurbitacin I glucoside]					0.03			
O=c1c2cc(O)c(O)cc2oc2cc(O)c([C@@H]3O[C@H](CO)[C@@H](O)[C@H](O)[C@H]3O)c(O)c12 [mangiferin]								hard to dissolve in methanol
